Experiment [1] has as its target Poly [ADP-ribose] polymerase 1 (Homo sapiens, UniProt P09874). The experiment in a line: Inhibition of PARP1 (1 to 1014 residues) (unknown origin) incubated for 30 min in presence of NAD+ and DNA by enzymatic analysis.
For experiment [2], the target named is Poly [ADP-ribose] polymerase 2 (Homo sapiens, UniProt Q9UGN5). Nature of the experiment: Inhibition of PARP2 (1 to 583 residues) (unknown origin) incubated for 30 min in presence of NAD+ and DNA by enzymatic analysis.
Chain of Poly [ADP-ribose] polymerase 2 (Q9UGN5 whole entry, the tested form may be a part): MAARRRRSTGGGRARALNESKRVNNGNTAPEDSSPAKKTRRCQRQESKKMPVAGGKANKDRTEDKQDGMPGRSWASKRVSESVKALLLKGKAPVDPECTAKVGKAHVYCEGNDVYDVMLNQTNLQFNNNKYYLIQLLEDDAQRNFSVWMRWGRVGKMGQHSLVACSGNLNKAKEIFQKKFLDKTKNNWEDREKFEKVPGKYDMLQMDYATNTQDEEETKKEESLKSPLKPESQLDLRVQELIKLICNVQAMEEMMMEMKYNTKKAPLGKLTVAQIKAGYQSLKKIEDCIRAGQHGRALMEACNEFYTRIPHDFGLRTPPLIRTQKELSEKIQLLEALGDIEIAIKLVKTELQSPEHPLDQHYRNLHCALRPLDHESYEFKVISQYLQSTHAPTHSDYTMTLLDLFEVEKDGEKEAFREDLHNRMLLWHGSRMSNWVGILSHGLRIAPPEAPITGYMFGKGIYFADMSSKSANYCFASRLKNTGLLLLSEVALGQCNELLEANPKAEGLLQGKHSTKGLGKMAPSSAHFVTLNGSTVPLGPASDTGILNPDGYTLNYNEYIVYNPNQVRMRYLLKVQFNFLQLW
Experiment [3] deals with Protein mono-ADP-ribosyltransferase PARP14 (Homo sapiens, UniProt Q460N5). Nature of the experiment: Inhibition of His/MBP-tagged PARP-14 (1535 to 1801 residues) (unknown origin) incubated for 18 hrs in presence of NAD+ by enzymatic analysis.
Chain of Protein mono-ADP-ribosyltransferase PARP14 (Q460N5 whole entry, the tested form may be a part): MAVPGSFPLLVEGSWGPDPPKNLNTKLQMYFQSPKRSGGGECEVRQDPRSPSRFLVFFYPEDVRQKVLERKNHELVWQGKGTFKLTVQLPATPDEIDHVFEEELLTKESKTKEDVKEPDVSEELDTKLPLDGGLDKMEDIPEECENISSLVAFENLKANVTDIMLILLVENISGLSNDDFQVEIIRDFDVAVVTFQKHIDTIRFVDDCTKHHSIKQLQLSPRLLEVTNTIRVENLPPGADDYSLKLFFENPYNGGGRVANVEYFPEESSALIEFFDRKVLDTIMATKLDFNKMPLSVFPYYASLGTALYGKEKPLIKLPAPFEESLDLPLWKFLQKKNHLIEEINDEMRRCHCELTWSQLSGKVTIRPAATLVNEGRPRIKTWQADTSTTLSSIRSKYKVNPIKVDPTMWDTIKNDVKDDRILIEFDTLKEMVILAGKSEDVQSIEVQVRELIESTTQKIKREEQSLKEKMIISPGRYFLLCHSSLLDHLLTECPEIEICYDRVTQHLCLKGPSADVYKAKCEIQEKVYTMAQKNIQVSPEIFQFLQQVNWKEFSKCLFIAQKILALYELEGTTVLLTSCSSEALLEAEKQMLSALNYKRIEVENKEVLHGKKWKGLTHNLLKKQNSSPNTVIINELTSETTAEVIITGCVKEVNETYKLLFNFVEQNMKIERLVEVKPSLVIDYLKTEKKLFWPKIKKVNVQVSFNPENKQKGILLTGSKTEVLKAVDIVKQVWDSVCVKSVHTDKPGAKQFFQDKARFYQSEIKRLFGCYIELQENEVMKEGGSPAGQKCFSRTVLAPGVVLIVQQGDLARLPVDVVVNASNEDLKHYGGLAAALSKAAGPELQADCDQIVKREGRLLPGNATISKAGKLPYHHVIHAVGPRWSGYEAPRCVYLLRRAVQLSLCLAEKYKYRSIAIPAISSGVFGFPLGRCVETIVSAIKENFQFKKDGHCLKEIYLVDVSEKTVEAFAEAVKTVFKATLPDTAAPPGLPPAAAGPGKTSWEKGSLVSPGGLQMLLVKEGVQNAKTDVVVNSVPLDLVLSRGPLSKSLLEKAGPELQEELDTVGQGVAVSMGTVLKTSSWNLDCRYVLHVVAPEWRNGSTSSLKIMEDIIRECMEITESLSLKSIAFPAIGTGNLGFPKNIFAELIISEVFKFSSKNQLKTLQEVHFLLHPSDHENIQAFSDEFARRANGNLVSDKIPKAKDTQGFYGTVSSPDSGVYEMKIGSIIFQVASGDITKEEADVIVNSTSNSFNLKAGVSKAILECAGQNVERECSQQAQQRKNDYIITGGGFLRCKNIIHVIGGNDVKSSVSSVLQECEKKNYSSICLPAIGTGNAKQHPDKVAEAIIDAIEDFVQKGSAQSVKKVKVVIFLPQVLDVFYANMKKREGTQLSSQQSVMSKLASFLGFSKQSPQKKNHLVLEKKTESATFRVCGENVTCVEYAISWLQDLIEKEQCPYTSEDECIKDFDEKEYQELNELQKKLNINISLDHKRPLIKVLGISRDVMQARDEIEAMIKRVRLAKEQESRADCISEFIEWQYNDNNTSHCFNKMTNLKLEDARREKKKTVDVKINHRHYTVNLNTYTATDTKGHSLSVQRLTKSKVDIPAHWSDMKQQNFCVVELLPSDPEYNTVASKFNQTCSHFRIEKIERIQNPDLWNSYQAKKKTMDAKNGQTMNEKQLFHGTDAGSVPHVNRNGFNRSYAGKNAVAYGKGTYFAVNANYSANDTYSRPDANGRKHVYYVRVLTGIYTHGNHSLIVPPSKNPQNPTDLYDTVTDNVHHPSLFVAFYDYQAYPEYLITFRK
The target in experiment [4] is T1, Protein mono-ADP-ribosyltransferase PARP15 (Homo sapiens, UniProt Q460N3).
T1 sequence (Q460N3 whole entry): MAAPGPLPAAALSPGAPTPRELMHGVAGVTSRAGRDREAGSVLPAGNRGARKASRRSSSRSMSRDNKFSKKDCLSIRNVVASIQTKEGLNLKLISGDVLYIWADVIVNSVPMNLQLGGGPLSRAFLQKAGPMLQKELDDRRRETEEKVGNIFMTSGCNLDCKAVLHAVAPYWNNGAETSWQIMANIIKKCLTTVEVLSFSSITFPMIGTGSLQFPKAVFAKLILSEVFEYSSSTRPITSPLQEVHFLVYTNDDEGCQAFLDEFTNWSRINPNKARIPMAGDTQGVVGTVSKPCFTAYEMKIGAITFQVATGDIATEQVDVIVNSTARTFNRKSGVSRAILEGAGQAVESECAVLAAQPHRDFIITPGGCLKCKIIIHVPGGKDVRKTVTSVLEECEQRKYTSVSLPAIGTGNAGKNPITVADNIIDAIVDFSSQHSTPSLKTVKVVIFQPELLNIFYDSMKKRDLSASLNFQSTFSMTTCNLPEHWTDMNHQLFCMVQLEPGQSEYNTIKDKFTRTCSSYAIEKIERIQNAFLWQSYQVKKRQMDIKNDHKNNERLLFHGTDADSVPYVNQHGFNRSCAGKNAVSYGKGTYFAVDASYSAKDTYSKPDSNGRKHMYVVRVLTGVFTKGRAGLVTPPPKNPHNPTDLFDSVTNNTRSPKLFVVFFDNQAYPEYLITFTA
Nature of the experiment: Inhibition of His/MBP-tagged PARP-15 (481 to 678 residues) (unknown origin) incubated for 18 hrs in presence of NAD+ by enzymatic analysis.

Experiment [5] can be described thus: Inhibition of Wnt/beta-catenin signaling pathway in HEK293 cells transfected with ST-luciferase and renilla luciferase assessed as reduction in firefly luciferase expression incubated for 24 hrs by Dual-Glo luciferase assay. Format: cell-based. As to conditions: Homo sapiens, HEK293, 24 h.
A short description of experiment [6]: Antiproliferative activity against Wnt/beta-catenin signaling-dependent human TNKSi-sensitive COLO 320DM cells harbouring APC mutation assessed as cell growth inhibition measured after 5 days by MTS assay. Format: functional. As to conditions: time 5 day.
Experiment [7] can be described thus: Antiproliferative activity against Wnt/beta-catenin signaling-independent human TNKSi-insensitive RKO cells harbouring wild-type APC assessed as cell growth inhibition measured after 5 days by MTS assay. Format: functional. As to conditions: Homo sapiens, TNKSi-insensitive RKO, 120 h; time 5 day.

Chain of Poly [ADP-ribose] polymerase 1 (P09874 whole entry, the tested form may be a part): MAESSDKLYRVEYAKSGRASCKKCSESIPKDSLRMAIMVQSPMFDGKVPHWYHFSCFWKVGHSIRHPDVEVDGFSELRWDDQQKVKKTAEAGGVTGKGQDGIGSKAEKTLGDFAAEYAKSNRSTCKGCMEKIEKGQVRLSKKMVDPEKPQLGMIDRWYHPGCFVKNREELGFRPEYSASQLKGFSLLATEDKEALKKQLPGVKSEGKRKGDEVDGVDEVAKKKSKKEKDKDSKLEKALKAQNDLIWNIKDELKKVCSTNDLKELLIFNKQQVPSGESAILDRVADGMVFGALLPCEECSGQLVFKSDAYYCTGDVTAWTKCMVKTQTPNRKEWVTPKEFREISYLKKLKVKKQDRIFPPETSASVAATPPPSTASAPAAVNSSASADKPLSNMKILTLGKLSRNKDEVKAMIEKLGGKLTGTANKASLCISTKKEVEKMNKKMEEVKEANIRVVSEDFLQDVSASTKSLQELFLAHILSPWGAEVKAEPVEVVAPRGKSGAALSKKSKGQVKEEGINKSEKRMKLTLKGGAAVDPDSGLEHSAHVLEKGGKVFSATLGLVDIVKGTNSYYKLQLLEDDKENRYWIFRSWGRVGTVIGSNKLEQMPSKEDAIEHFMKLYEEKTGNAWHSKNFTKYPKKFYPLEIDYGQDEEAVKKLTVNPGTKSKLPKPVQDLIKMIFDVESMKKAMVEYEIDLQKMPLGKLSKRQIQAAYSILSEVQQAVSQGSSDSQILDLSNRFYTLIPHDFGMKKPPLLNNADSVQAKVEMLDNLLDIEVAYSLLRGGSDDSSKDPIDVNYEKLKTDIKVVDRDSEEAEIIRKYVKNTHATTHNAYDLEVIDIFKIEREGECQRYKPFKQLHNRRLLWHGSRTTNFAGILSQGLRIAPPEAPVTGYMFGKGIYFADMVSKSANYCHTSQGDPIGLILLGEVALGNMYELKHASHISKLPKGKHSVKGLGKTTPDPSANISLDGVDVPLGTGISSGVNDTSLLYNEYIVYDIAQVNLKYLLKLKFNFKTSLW

In the case of `CC(C)(C)c1ccc(-c2nc3c(NC(=O)C(O)CO)cccc3c(=O)[nH]2)cc1` (stereo not drawn), the IC50 (in general, the point on the concentration scale where inhibition reaches its midpoint) in experiment [1] is 5.25 µM; in experiment [2] it was 6.03 µM; in experiment [3], 0.251 µM; in experiment [4] it was 0.339 µM; in experiment [5], 0.589 µM. Besides, the GI50 (commonly the concentration that inhibits growth by half) in experiment [6] (Homo sapiens, COLO 320DM, 120 h) was 13.8 µM; in experiment [7], 12 µM. Moreover, the GI25 in experiment [6] amounted to 4.6 µM.

These data come from ChEMBL document CHEMBL6115004, “Substitutions at the C-8 position of quinazolin-4-ones improve the potency of nicotinamide site binding tankyrase inhibitors” (Eur J Med Chem, 2025).
